Measurements reported in US20250195464A1, “ALOTAKETAL COMPOUNDS AND DERIVATIVES THEREOF FOR USE AS ANTIVIRAL AGENTS” (priority 2022, published 2025).
Like-named read-outs stand apart in the source and are kept apart here.

Test system: SARS-CoV-2 Omicron
Assay: microbe, parasite or virus in culture
Format: cell-based
Conditions: Severe acute respiratory syndrome coronavirus 2, Calu-3

CC(=O)O[C@]1(C)C[C@@H](/C=C(\C)CCC=C(C)C)O[C@@]2(C=C(CO)[C@H]3CC(=O)C(C)=C[C@H]3O2)C1 [Alotaketal C]
EC50 (read-out: Nucleocapsid EC50, Omicron): 140 nM | EC50 (read-out: dsRNA EC50, Omicron): 1540 nM
